Measured values published in patent publication US20120324604A1, “PESTICIDAL MIXTURES CONTAINING ISOXAZOLINE DERIVATIVES AND A FUNGICIDE” (priority 2010, published 2012).
Where “and” joins values, the source holds several entries; their conditions need not be identical. Equal entries are not always repeated.

Tests used:
Assay type in all cases: cell-based
Septoria tritici = Septoria tritici (Leaf Blotch) growth inhibition, microtiter plate, photometric
Protocol: Septoria tritici (Leaf Blotch):
(§1) Conidia of the fungus from cryogenic storage were directly mixed into nutrient broth (potato dextrose broth). After placing a (DMSO) solution of the test compounds into a microtiter plate (96-well format) the nutrient broth containing the fungal spores was added.

Rhizoctonia solani = Rhizoctonia solani (Foot Rot, Damping-Off) growth inhibition, microtiter plate, photometric
Protocol: Rhizoctonia solani (Foot Rot, Damping-Off):
Mycelial fragments of the fungus from cryogenic storage were directly mixed into nutrient broth (potato dextrose broth). After placing a (DMSO) solution of the test compounds into a microtiter plate (96-well format) the nutrient broth containing the fungal spores was added.

[1] = test system: Glomerella lagenarium (syn. Colletotrichum lagenarium); assay: Glomerella lagenarium (Anthracnose of Cucurbits) growth inhibition, microtiter plate, photometric; settings: alone
Protocol: Glomerella lagenarium (syn. Colletotrichum lagenarium), Anthracnose of Cucurbits:
as §1

Fusarium culmorum = Fusarium culmorum (Root Rot) growth inhibition, microtiter plate, photometric; settings: alone
Protocol: Fusarium culmorum (Root Rot):
as §1

Gaeumannomyces graminis = Gaeumannomyces graminis growth inhibition, microtiter plate, photometric
Protocol: Mycelial fragments of the fungus from cryogenic storage were directly mixed into nutrient broth (potato dextrose broth). After placing a (DMSO) solution of the test compounds into a microliter plate (96-well format) the nutrient broth containing the fungal spores was added.

Pythium ultimum = Pythium ultimum (Damping Off) growth inhibition, microtiter plate, photometric
Protocol: Pythium ultimum (Damping Off):
Mycelial fragments of the fungus, prepared from a fresh liquid culture, were directly mixed into nutrient broth (potato dextrose broth). After placing a (DMSO) solution of the test compounds into a microtiter plate (96-well format) the nutrient broth containing the fungal spores was added.

[2] = test system: Mycosphaerella arachidis (syn. Cercospora arachidicola); assay: Mycosphaerella arachidis (Brown Leaf Spot of Groundnut) growth inhibition, microtiter plate, photometric; settings: alone
Protocol: Mycosphaerella arachidis (syn. Cercospora arachidicola), Brown Leaf Spot of Groundnut (Peanut):
as §1

[3] = single compound at 0.0625 ppm AI
[4] = single compound at 0.125 ppm AI

CO/C=C(/C(=O)OC)c1ccccc1Oc1cc(Oc2ccccc2C#N)ncn1 [Azoxystrobin, reference compound]
70%: AVERAGE DEAD IN % (Septoria tritici; 0.0625 ppm AI, alone) | AVERAGE DEAD IN % Azoxystrobin (Septoria tritici; Azoxystrobin alone, 0.0625 ppm AI) | AVERAGE DEAD IN % (Septoria tritici; alone, 0.0625 ppm AI) | AVERAGE DEAD IN % (Gaeumannomyces graminis; [4]) | AVERAGE DEAD IN % (Gaeumannomyces graminis; single compound at 0.25 ppm AI)
50%: AVERAGE DEAD IN % (Septoria tritici; 0.03125 ppm AI, alone) | AVERAGE DEAD IN % (Septoria tritici; alone, 0.03125 ppm AI) | AVERAGE DEAD IN % ([1]; 0.03125 ppm AI) | AVERAGE DEAD IN % (Gaeumannomyces graminis; applied alone, 0.5 ppm AI) | AVERAGE DEAD IN % (Gaeumannomyces graminis; applied alone, 1 ppm AI) | AVERAGE DEAD IN % (Gaeumannomyces graminis; applied alone, 2 ppm AI) | AVERAGE DEAD IN % (Gaeumannomyces graminis; [3])
20%: AVERAGE DEAD IN % (Septoria tritici; 0.015625 ppm AI, alone) | AVERAGE DEAD IN % Azoxystrobin (Septoria tritici; Azoxystrobin alone, 0.015625 ppm AI) | AVERAGE DEAD IN % (Septoria tritici; alone, 0.015625 ppm AI) | AVERAGE DEAD IN % (Rhizoctonia solani; applied alone, 0.125 ppm AI) | AVERAGE DEAD IN % (Rhizoctonia solani; applied alone, 0.25 ppm AI) | AVERAGE DEAD IN % (Rhizoctonia solani; applied alone, 0.5 ppm AI) | AVERAGE DEAD IN % (Rhizoctonia solani; applied alone, 1 ppm AI) | AVERAGE DEAD IN % (Rhizoctonia solani; applied alone, 2 ppm AI) | AVERAGE DEAD IN % (Rhizoctonia solani; [3]) | AVERAGE DEAD IN % (Rhizoctonia solani; [4]) | AVERAGE DEAD IN % (Rhizoctonia solani; single compound at 0.25 ppm AI) | AVERAGE DEAD IN % (Rhizoctonia solani; single compound at 0.5 ppm AI) | AVERAGE DEAD IN % (Rhizoctonia solani; single compound at 1 ppm AI) | AVERAGE DEAD IN % (Rhizoctonia solani; single compound at 2 ppm AI) | AVERAGE DEAD IN % ([1]; 0.015625 ppm AI) | AVERAGE DEAD IN % (Fusarium culmorum; 1 PPM AI) | AVERAGE DEAD IN % (Fusarium culmorum; 2 PPM AI) | AVERAGE DEAD IN % (Gaeumannomyces graminis; applied alone, 0.125 ppm AI) | AVERAGE DEAD IN % (Gaeumannomyces graminis; applied alone, 0.25 ppm AI) | AVERAGE DEAD IN % (Gaeumannomyces graminis; single compound at 0.00390625 ppm AI) | AVERAGE DEAD IN % ([2]; 0.015625 PPM AI)
100% and 50%: AVERAGE DEAD IN % (Gaeumannomyces graminis; single compound at 0.03125 ppm AI)
90% and 50%: AVERAGE DEAD IN % (Gaeumannomyces graminis; single compound at 0.015625 ppm AI)
90%: AVERAGE DEAD IN % (Septoria tritici; 0.125 ppm AI, alone) | AVERAGE DEAD IN % Azoxystrobin (Septoria tritici; Azoxystrobin alone, 0.125 ppm AI) | AVERAGE DEAD IN % (Septoria tritici; alone, 0.125 ppm AI) | AVERAGE DEAD IN % (Gaeumannomyces graminis; single compound at 0.5 ppm AI) | AVERAGE DEAD IN % (Gaeumannomyces graminis; single compound at 1 ppm AI) | AVERAGE DEAD IN % (Gaeumannomyces graminis; single compound at 2 ppm AI) | AVERAGE DEAD IN % ([2]; 0.125 ppm AI) | AVERAGE DEAD IN % ([2]; 0.0625 PPM AI)
0%: AVERAGE DEAD IN % (Septoria tritici; alone, 0.0078125 ppm AI) | AVERAGE DEAD IN % ([1]; 0.0078125 ppm AI) | AVERAGE DEAD IN % (Fusarium culmorum; 0.5 PPM AI) | AVERAGE DEAD IN % (Gaeumannomyces graminis; applied alone, 0.00390625 ppm AI) | AVERAGE DEAD IN % (Gaeumannomyces graminis; applied alone, 0.0078125 ppm AI) | AVERAGE DEAD IN % (Gaeumannomyces graminis; applied alone, 0.015625 ppm AI) | AVERAGE DEAD IN % (Gaeumannomyces graminis; applied alone, 0.03125 ppm AI) | AVERAGE DEAD IN % (Gaeumannomyces graminis; applied alone, 0.0625 ppm AI) | AVERAGE DEAD IN % (Pythium ultimum; [4]) | AVERAGE DEAD IN % ([2]; 0.0078125 ppm AI) | AVERAGE DEAD IN % ([2]; 0.015625 ppm AI) | AVERAGE DEAD IN % ([2]; 0.0078125 PPM AI)
70% and 50%: AVERAGE DEAD IN % ([2]; 0.0625 ppm AI)
50% and 70%: AVERAGE DEAD IN % ([2]; 0.03125 PPM AI)

N#Cc1c(Cl)c(Cl)c(Cl)c(C#N)c1Cl [Chlorothalonil, reference compound]
20%: AVERAGE DEAD IN % Chlorothalonil (Septoria tritici; Chlorothalonil alone, 0.25 ppm AI) | AVERAGE DEAD IN % ([2]; 0.125 ppm AI) | AVERAGE DEAD IN % ([2]; 0.25 PPM AI)
90% and 100%: AVERAGE DEAD IN % (Gaeumannomyces graminis; single compound at 2 ppm AI)
100% and 70%: AVERAGE DEAD IN % ([2]; 0.5 PPM AI)
50% and 90%: AVERAGE DEAD IN % ([1]; 0.25 ppm AI)
90%: AVERAGE DEAD IN % (Rhizoctonia solani; applied alone, 1 ppm AI)
0%: AVERAGE DEAD IN % (Septoria tritici; 0.25 ppm AI, alone) | AVERAGE DEAD IN % Chlorothalonil (Septoria tritici; Chlorothalonil alone, 0.03125 ppm AI) | AVERAGE DEAD IN % (Rhizoctonia solani; single compound at 1 ppm AI) | AVERAGE DEAD IN % (Rhizoctonia solani; single compound at 2 ppm AI) | AVERAGE DEAD IN % (Fusarium culmorum; 0.5 PPM AI) | AVERAGE DEAD IN % (Gaeumannomyces graminis; single compound at 0.25 ppm AI) | AVERAGE DEAD IN % (Pythium ultimum; single compound at 0.25 ppm AI) | AVERAGE DEAD IN % (Pythium ultimum; single compound at 0.5 ppm AI) | AVERAGE DEAD IN % (Pythium ultimum; single compound at 1 ppm AI)
50% and 100% and 90%: AVERAGE DEAD IN % (Gaeumannomyces graminis; single compound at 1 ppm AI)
50%: AVERAGE DEAD IN % (Septoria tritici; 0.5 ppm AI, alone)
70%: AVERAGE DEAD IN % Chlorothalonil (Septoria tritici; Chlorothalonil alone, 0.0625 ppm AI) | AVERAGE DEAD IN % (Septoria tritici; alone, 1 ppm AI) | AVERAGE DEAD IN % (Rhizoctonia solani; applied alone, 0.5 ppm AI) | AVERAGE DEAD IN % ([1]; 0.5 ppm AI) | AVERAGE DEAD IN % ([2]; 0.5 ppm AI)
